# According to patent US20250161283A1, “USE OF INDAZOLE COMPOUND FOR TREATING PSORIASIS” (WUHAN CREATERNA SCIENCE AND TECHNOLOGY CO., LTD., priority 2022, published 2025):
# Tested on: BALB/c mice
# Assay: IMQ (imiquimod) cream-induced psoriasis mouse model
# Type: in vivo
# Settings: male BALB/c mice, 15 mg/kg intragastric, twice daily
# Experimental: BALB/c mice, male, 8 weeks old, SPF grade, provided by Shanghai Lingchang Biotechnology Co., Ltd.
# In the drawings: • Group 1 Vaseline-Topical Vehicle P.O indicates a normal control group (vehicle group). • Group 2 IMQ+Vehicle P.O indicates a model control group (vehicle group). • Group 3 IMQ+Dex-Topical indicates a positive control group (dexamethasone). • Group 4 IMQ+A 15 mg/kg P.O indicates a compound group (A, 15 mg/kg, intragastric administration). • Group 5 IMQ+B 15 mg/kg P.O indicates a compound group (B, 15 mg/kg, intragastric administration).
# First, 50 mice were randomly divided into 5 groups based on body weight: compound group 1—normal control group (vehicle group); compound group 2—model control group (vehicle group); compound group 3—positive control group (dexamethasone); compound group 4 (compound A, 15 mg/kg, intragastrically administered); compound group 5 (compound B, 15 mg/kg, intragastrically administered). On day 0 of the experiment, the dorsal hair of mice in each group was shaved, removing approximately 2 cm*3 cm area of hair. From day 1 to day 7 of the experiment, except for the normal control group, each mouse received an application of 62.5 mg of 5% IMQ cream on the shaved dorsal area and 20.0 mg of 5% IMQ cream on both sides of the right ear. The normal control group received an application of Vaseline. From day 1 to day 8 of the experiment, two hours before IMQ cream stimulation, the above groups were treated with corresponding drugs. The mice were weighed and shaved prior to administration, which was recorded as day 0. The mice were administered drugs from day 1 to day 8, twice daily.
# • 1.5.1. Body weight and rate of change: The body weight was recorded, and the rate of change in body weight was calculated. The results are shown in FIG. 1 (presented as Mean±SEM, where *P<0.05, **P<0.01, ***P<0.001, V.S. model control group, Two-way ANOVA, Bonferroni posttests, n=10). • 1.5.2. Right ear thickness measurement: The thickness of the right ear of animals in each group was measured and recorded using a micrometer. The results are shown in FIG. 2 (Note: data presented as Mean±SEM, where *P<0.05, **P<0.01, ***P<0.001, V.S. model control group, Two-way ANOVA, Bonferroni posttests, n=10; data presented as Mean±SEM, where #P<0.5, ##P<0.01, ###P<0.001, V.S. Group 4, Two-way ANOVA, Bonferroni posttests, n=10) • 1.5.3. Dorsal skin scoring: On days 1, 3, 5, and 7, a representative photograph was taken for each group, and clinical scoring of the dorsal skin was performed. The clinical scoring criteria are shown in Table 1, and the results are shown in FIG. 3 (data presented as Mean±SEM, where *P<0.05, **P<0.01, ***P<0.001, V.S. model control group, Two-way ANOVA, Bonferroni posttests, n=10; data presented as Mean±SEM, where #P<0.5, ##P<0.01, ###P<0.001, V.S. Group 4, Two-way ANOVA, Bonferroni posttests, n=10).
# • 1.5.4. Spleen weight: On day 8, mice in each group were euthanized by CO2 inhalation, and the spleens were rapidly excised. Right ear and dorsal skin samples were also collected. One-third of the dorsal skin, spleen, and right ear tissues were fixed in 10% neutral formalin fixative for preparation of paraffin sections and HE staining. Another one-third of the dorsal skin was snap-frozen in liquid nitrogen for ELISA analysis. The remaining one-third of the dorsal skin was snap-frozen in liquid nitrogen and stored in a −80° C. freezer for future use. The results are shown in FIG. 4 (Note: data presented as Mean±SEM, where *P<0.05, **P<0.01, ***P<0.001, V.S. model control group, One-way ANOVA, Bonferroni posttests, n=10; data presented as Mean±SEM, where #P<0.5, ##P<0.01, ###P<0.001, V.S. Group 4, One-way ANOVA, Bonferroni posttests, n=10). • 1.5.5. Dorsal skin pathology scoring: Dorsal skin tissue samples were collected from mice and fixed in 10% neutral formalin fixative for 48 hours. The tissues were then degreased in 75% ethanol for 72 hours, with daily medium changes. […]
compound,measurement,setting,value
"COc1cc2nn([C@H]3CC[C@](C)(O)CC3)cc2cc1NC(=O)c1cccc(C)[n+]1[O-] [Compound B, 2-((2-(trans-4-hydroxy-cis-4-methylcyclohexyl)-6-methoxy-2H-indazol-5-yl)carbamoyl)-6-methylpyridine 1-oxide]","disease symptoms in the keratin, epidermis, and dermis of the dorsal skin","HE staining of dorsal skin, compared to model control group",alleviation
same,dorsal skin pathological scores,"HE staining of dorsal skin, compared to model control group, FIG. 5",significant reduction
same,psoriasis symptoms,compared to model control group,significant reduction
same,weight loss (body weight and rate of change),"day 1 to day 8, compared to model control group, FIG. 1",significantly inhibited
same,increase in right ear thickness,"day 1 to day 8, compared to model control group, FIG. 2",significantly inhibited
same,"PASI clinical scores (dorsal skin: erythema, crusting, skin thickness, score 0-4)","scored on days 1, 3, 5, 7, compared to model control group, FIG. 3",significant reduction
same,increase in spleen weight (spleen enlargement),"spleen excised on day 8, compared to model control group, FIG. 4",significantly inhibited
